Results from patent US8637499B2, “Benzoxazepines as inhibitors of PI3K/mTOR and methods of their use and manufacture” (Exelixis, Inc., priority 2009, dated 2014).
Like-named read-outs stand apart in the source and are kept apart here.

Tests used:
[1] = target: mTORC1 (mTOR/GbL/Raptor) (Homo sapiens, UniProt P42345); assay: mTOR/GbL/Raptor (mTORC1) ELISA Assay; assay type: biochemical; conditions: 0.2 nM mTORC1, 10 μM ATP, 50 nM NHis-tagged 4E-BP1, phosphorylation of 4E-BP1
Outline: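 Detection used Ni-chelate capture of His-tagged 4E-BP1, then anti-phospho-4E-BP1 and HRP anti-IgG with luminescent ELISA substrate. Reactions ran 120 min at ambient temperature with 0.2 nM mTORC1, 10 μM ATP, 50 nM 4E-BP1, 10 mM MnCl2, pH 7.2 Hepes.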

[2] = target: PI3Kα (Homo sapiens, UniProt P42336); assay: PI3K Biochemical Assays (ATP consumption, luciferase-luciferin chemiluminescence); conditions: PI3Kα 1.5 nM, ATP 1 μM, PIP2 10 μM; percent of ATP consumed
PI3Kα, sequence (P42336 whole entry): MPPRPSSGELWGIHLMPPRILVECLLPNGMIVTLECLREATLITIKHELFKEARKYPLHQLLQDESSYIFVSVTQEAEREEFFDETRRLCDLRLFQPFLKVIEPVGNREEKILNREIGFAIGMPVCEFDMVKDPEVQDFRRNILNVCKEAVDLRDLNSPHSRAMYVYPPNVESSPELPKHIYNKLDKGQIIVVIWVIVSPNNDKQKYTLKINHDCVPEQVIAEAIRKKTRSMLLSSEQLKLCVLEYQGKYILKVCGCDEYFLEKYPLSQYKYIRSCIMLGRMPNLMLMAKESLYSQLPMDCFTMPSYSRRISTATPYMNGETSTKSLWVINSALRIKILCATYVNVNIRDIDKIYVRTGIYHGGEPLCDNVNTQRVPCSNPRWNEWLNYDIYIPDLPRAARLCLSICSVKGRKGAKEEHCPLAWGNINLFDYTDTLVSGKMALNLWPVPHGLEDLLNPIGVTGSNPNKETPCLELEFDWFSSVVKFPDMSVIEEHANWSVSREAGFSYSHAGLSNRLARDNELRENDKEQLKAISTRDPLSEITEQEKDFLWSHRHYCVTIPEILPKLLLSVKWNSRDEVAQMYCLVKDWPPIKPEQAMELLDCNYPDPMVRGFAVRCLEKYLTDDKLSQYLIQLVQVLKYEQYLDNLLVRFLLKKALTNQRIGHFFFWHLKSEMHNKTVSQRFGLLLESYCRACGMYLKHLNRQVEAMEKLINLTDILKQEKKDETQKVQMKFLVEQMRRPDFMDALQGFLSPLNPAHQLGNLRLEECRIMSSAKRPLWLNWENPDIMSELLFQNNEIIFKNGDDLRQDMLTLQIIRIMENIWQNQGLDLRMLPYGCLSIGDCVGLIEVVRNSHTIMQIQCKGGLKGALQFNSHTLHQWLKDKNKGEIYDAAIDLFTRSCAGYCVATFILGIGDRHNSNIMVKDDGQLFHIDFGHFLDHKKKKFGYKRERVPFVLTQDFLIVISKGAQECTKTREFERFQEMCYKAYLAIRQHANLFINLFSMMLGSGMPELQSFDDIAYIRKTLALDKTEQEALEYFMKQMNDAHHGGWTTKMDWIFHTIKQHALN
PI3Kα, sequence (P27986 whole entry partner): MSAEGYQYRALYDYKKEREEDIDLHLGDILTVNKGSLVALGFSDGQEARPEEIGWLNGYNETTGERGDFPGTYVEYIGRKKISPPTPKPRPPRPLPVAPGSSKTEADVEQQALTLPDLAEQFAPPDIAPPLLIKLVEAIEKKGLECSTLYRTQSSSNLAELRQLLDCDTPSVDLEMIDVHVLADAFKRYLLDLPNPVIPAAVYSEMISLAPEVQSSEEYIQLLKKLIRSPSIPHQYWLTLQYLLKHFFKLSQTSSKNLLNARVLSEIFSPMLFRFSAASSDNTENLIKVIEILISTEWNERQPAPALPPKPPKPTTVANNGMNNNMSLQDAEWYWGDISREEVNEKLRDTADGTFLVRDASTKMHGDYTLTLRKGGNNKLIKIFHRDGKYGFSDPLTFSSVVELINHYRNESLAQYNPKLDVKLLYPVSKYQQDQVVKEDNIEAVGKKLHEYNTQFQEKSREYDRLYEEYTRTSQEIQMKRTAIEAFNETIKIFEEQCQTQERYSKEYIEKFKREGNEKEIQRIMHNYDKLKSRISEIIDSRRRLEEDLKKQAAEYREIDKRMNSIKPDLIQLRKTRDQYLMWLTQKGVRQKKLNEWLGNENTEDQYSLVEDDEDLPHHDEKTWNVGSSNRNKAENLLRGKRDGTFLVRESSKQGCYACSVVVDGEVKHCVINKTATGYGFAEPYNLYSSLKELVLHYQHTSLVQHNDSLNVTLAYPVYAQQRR
Outline: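 Enzyme (1.5 nM), PIP2 substrate (10 μM) and ATP (1 μM) react about 2 h at room temperature in Tris buffer pH 7.5 with MgCl2, EGTA, DTT and CHAPS. Remaining ATP detected by Kinase-Glo luminescence; total consumption limited to 40-60%.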

IC50 ([1]; read-out: IC50) [nM]	IC50 [2] [nM]	IC50 [1]	Compound
≤ 50	≤ 75	–	Cc1nc2ccc(-c3ccc4c(c3)CN(C(=O)N3CCCCC3c3cc(F)cc(F)c3)CCO4)cc2[nH]1 (stereo not shown) [Compound 130, 4-{[2-(3,5-difluorophenyl)piperidin-1-yl]carbonyl}-7-(2-methyl-1H-benzimidazol-6-yl)-2,3,4,5-tetrahydro-1,4-benzoxazepine]
700 to 2600	1000 to 3000	–	Cc1nc2ccc(-c3ccc4c(c3)CN(C(=O)N3CCCCC3c3ccc(N(C)C)cc3)CCO4)cc2[nH]1 (stereo not shown) [Compound 131, N,N-dimethyl-4-(1-{[7-(2-methyl-1H-benzimidazol-6-yl)-2,3-dihydro-1,4-benzoxazepin-4(5H)-yl]carbonyl}piperidin-2-yl)aniline]
50 to 250	1000 to 3000	–	Cc1nc2ccc(-c3ccc4c(c3)CN(C(=O)N3CCC(C)(C(N)=O)CC3)CCO4)cc2[nH]1 [Compound 135, 4-methyl-1-{[7-(2-methyl-1H-benzimidazol-6-yl)-2,3-dihydro-1,4-benzoxazepin-4(5H)-yl]carbonyl}piperidine-4-carboxamide]
250 to 700	200 to 500	–	Cc1nc2ccc(-c3ccc4c(c3)CN(C(=O)N3CCC(=C(F)F)CC3)CCO4)cc2[nH]1 [Compound 137, 4-{[4-(difluoromethylidene)piperidin-1-yl]carbonyl}-7-(2-methyl-1H-benzimidazol-6-yl)-2,3,4,5-tetrahydro-1,4-benzoxazepine]
50 to 250	500 to 1000	–	Cc1nc2ccc(-c3ccc4c(c3)CN(C(=O)N3CCC(F)(F)CC3c3ccccc3)CCO4)cc2[nH]1 (stereo not shown) [Compound 138, 4-[(4,4-difluoro-2-phenylpiperidin-1-yl)carbonyl]-7-(2-methyl-1H-benzimidazol-6-yl)-2,3,4,5-tetrahydro-1,4-benzoxazepine]
50 to 250	1000 to 3000	–	Cc1nc2ccc(-c3ccc4c(c3)CN(C(=O)N3CCC(C(C)(C)O)CC3)CCO4)cc2[nH]1 [Compound 139, 2-(1-{[7-(2-methyl-1H-benzimidazol-6-yl)-2,3-dihydro-1,4-benzoxazepin-4(5H)-yl]carbonyl}piperidin-4-yl)propan-2-ol]
≤ 50	200 to 500	–	Cc1nc2ccc(-c3ccc4c(c3)CN(C(=O)N3CCC(O)(c5ccc(F)cc5)CC3)CCO4)cc2[nH]1 [Compound 142, 4-(4-fluorophenyl)-1-{[7-(2-methyl-1H-benzimidazol-6-yl)-2,3-dihydro-1,4-benzoxazepin-4(5H)-yl]carbonyl}piperidin-4-ol]
50 to 250	200 to 500	–	Cc1nc2ccc(-c3ccc4c(c3)CN(C(=O)N3C5CCC3c3ccccc35)CCO4)cc2[nH]1 [Compound 143, 9-{[7-(2-methyl-1H-benzimidazol-6-yl)-2,3-dihydro-1,4-benzoxazepin-4(5H)-yl]carbonyl}-1,2,3,4-tetrahydro-1,4-epiminonaphthalene]
250 to 700	1000 to 3000	–	Cc1nc2ccc(-c3ccc4c(c3)CN(C(=O)N3CCN(c5ccccc5)CC3c3ccccc3)CCO4)cc2[nH]1 (stereo not shown) [Compound 145, 4-[(2,4-diphenylpiperazin-1-yl)carbonyl]-7-(2-methyl-1H-benzimidazol-6-yl)-2,3,4,5-tetrahydro-1,4-benzoxazepine]
–	500 to 1000	not active	Cc1nc2ccc(-c3ccc4c(c3)CN(C(=O)N3CCN(c5ccc(C(F)(F)F)cn5)CC3)CCO4)cc2[nH]1 [Compound 150, 7-(2-methyl-1H-benzimidazol-6-yl)-4-({4-[5-(trifluoromethyl)pyridin-2-yl]piperazin-1-yl}carbonyl)-2,3,4,5-tetrahydro-1,4-benzoxazepine]
250 to 700	1000 to 3000	–	Cc1cccc(CN(C)C(=O)N2CCOc3ccc(-c4ccc5nc(C)[nH]c5c4)cc3C2)c1 [Compound 153, N-methyl-7-(2-methyl-1H-benzimidazol-6-yl)-N-[(3-methylphenyl)methyl]-2,3-dihydro-1,4-benzoxazepine-4(5H)-carboxamide]
700 to 2600	1000 to 3000	–	Cc1ccc(OCC2CN(C(=O)N3CCOc4ccc(-c5ccc6nc(C)[nH]c6c5)cc4C3)CCO2)cc1 (stereo not shown) [Compound 154, 7-(2-methyl-1H-benzimidazol-6-yl)-4-[(2-{[(4-methylphenyl)oxy]methyl}morpholin-4-yl)carbonyl]-2,3,4,5-tetrahydro-1,4-benzoxazepine]
50 to 250	200 to 500	–	Cc1nc2ccc(-c3ccc4c(c3)CN(C(=O)N3CCC5CCCCC5C3)CCO4)cc2[nH]1 (stereo not shown) [Compound 156, 7-(2-methyl-1H-benzimidazol-6-yl)-4-(octahydroisoquinolin-2(1H)-ylcarbonyl)-2,3,4,5-tetrahydro-1,4-benzoxazepine]
50 to 250	200 to 500	–	Cc1nc2ccc(-c3ccc4c(c3)CN(C(=O)N3CC=C(c5ccccc5)CC3)CCO4)cc2[nH]1 [Compound 157, 7-(2-methyl-1H-benzimidazol-6-yl)-4-[(4-phenyl-3,6-dihydropyridin-1(2H)-yl)carbonyl]-2,3,4,5-tetrahydro-1,4-benzoxazepine]
250 to 700	200 to 500	–	Cc1nc2ccc(-c3ccc4c(c3)CN(C(=O)N3CCN(c5cnccn5)CC3)CCO4)cc2[nH]1 [Compound 161, 7-(2-methyl-1H-benzimidazol-6-yl)-4-[(4-pyrazin-2-ylpiperazin-1-yl)carbonyl]-2,3,4,5-tetrahydro-1,4-benzoxazepine]
250 to 700	1000 to 3000	–	Cc1nc2ccc(-c3ccc4c(c3)CN(C(=O)N3CCC(c5noc(C)n5)CC3)CCO4)cc2[nH]1 [Compound 162, 7-(2-methyl-1H-benzimidazol-6-yl)-4-{[4-(5-methyl-1,2,4-oxadiazol-3-yl)piperidin-1-yl]carbonyl}-2,3,4,5-tetrahydro-1,4-benzoxazepine]
250 to 700	1000 to 3000	–	Cc1nc2ccc(-c3ccc4c(c3)CN(C(=O)N3CCC(c5noc(C6CC6)n5)CC3)CCO4)cc2[nH]1 [Compound 163, 4-{[4-(5-cyclopropyl-1,2,4-oxadiazol-3-yl)piperidin-1-yl]carbonyl}-7-(2-methyl-1H-benzimidazol-6-yl)-2,3,4,5-tetrahydro-1,4-benzoxazepine]
700 to 2600	200 to 500	–	Cc1nc2ccc(-c3ccc4c(c3)CN(C(=O)N3CCN(c5ncccn5)CC3)CCO4)cc2[nH]1 [Compound 166, 7-(2-methyl-1H-benzimidazol-6-yl)-4-[(4-pyrimidin-2-ylpiperazin-1-yl)carbonyl]-2,3,4,5-tetrahydro-1,4-benzoxazepine]
700 to 2600	1000 to 3000	–	Cc1nc2ccc(-c3ccc4c(c3)CN(C(=O)N3CCCCCCC3)CCO4)cc2[nH]1 [Compound 167, 4-(azocan-1-ylcarbonyl)-7-(2-methyl-1H-benzimidazol-6-yl)-2,3,4,5-tetrahydro-1,4-benzoxazepine]
50 to 250	1000 to 3000	–	Cc1nc2ccc(-c3ccc4c(c3)CN(C(=O)N3CCC(c5ccccc5)CC3)CCO4)cc2[nH]1 [Compound 170, 7-(2-methyl-1H-benzimidazol-6-yl)-4-[(4-phenylpiperidin-1-yl)carbonyl]-2,3,4,5-tetrahydro-1,4-benzoxazepine]
700 to 2600	200 to 500	–	Cc1nc2ccc(-c3ccc4c(c3)CN(C(=O)N3CCN(c5ccccn5)CC3)CCO4)cc2[nH]1 [Compound 172, 7-(2-methyl-1H-benzimidazol-6-yl)-4-[(4-pyridin-2-ylpiperazin-1-yl)carbonyl]-2,3,4,5-tetrahydro-1,4-benzoxazepine]
250 to 700	500 to 1000	–	Cc1nc2ccc(-c3ccc4c(c3)CN(C(=O)N3CCN(c5ccccc5)CC3)CCO4)cc2[nH]1 [Compound 174, 7-(2-methyl-1H-benzimidazol-6-yl)-4-[(4-phenylpiperazin-1-yl)carbonyl]-2,3,4,5-tetrahydro-1,4-benzoxazepine]
700 to 2600	1000 to 3000	–	Cc1nc2ccc(-c3ccc4c(c3)CN(C(=O)N3CCN(c5ccc(F)cc5)CC3)CCO4)cc2[nH]1 [Compound 175, 4-{[4-(4-fluorophenyl)piperazin-1-yl]carbonyl}-7-(2-methyl-1H-benzimidazol-6-yl)-2,3,4,5-tetrahydro-1,4-benzoxazepine]
50 to 250	1000 to 3000	–	Cc1nc2ccc(-c3ccc4c(c3)CN(C(=O)N3CCN(c5cccc(Cl)c5)CC3)CCO4)cc2[nH]1 [Compound 176, 4-{[4-(3-chlorophenyl)piperazin-1-yl]carbonyl}-7-(2-methyl-1H-benzimidazol-6-yl)-2,3,4,5-tetrahydro-1,4-benzoxazepine]
50 to 250	200 to 500	–	CCN(Cc1ccccc1)C(=O)N1CCOc2ccc(-c3ccc4nc(C)[nH]c4c3)cc2C1 [Compound 177, N-ethyl-7-(2-methyl-1H-benzimidazol-6-yl)-N-(phenylmethyl)-2,3-dihydro-1,4-benzoxazepine-4(5H)-carboxamide]
50 to 250	200 to 500	–	O=C(N1CCOc2ccc(-c3cnc4nc[nH]c4c3)cc2C1)N1[C@@H]2CC[C@H]1C[C@](O)(C(F)(F)F)C2 [Compound 178, 8-{[7-(1H-imidazo[4,5-b]pyridin-6-yl)-2,3-dihydro-1,4-benzoxazepin-4(5H)-yl]carbonyl}-3-(trifluoromethyl)-8-azabicyclo[3.2.1]octan-3-(endo)-ol]
